Results from patent US10214519B2, “Phosphatidylinositol 3-kinase inhibitors” (Gilead Sciences, Inc., priority 2016, dated 2019).

Target: PI3Kβ (Homo sapiens (Human), UniProt P42338)
Assay: PI3K isoform TR-FRET enzymatic assay (PI3Kβ)
Assay type: biochemical
Details: 2× Km ATP, 30 minutes at 25° C.
Summary of the method: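 IC50 came from four-parameter dose-response fits, normalized between DMSO and 1 μM wortmannin controls. The read-out was TR-FRET (615/665 nm) of PIP3 displacing fluorescent PIP3 from Europium GRP-1 after 10 mM EDTA termination. Compounds were incubated with purified heterodimeric PI3Kβ for 30 min at 25° C.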

Chain of PI3Kβ (P42338 whole entry, canonical isoform): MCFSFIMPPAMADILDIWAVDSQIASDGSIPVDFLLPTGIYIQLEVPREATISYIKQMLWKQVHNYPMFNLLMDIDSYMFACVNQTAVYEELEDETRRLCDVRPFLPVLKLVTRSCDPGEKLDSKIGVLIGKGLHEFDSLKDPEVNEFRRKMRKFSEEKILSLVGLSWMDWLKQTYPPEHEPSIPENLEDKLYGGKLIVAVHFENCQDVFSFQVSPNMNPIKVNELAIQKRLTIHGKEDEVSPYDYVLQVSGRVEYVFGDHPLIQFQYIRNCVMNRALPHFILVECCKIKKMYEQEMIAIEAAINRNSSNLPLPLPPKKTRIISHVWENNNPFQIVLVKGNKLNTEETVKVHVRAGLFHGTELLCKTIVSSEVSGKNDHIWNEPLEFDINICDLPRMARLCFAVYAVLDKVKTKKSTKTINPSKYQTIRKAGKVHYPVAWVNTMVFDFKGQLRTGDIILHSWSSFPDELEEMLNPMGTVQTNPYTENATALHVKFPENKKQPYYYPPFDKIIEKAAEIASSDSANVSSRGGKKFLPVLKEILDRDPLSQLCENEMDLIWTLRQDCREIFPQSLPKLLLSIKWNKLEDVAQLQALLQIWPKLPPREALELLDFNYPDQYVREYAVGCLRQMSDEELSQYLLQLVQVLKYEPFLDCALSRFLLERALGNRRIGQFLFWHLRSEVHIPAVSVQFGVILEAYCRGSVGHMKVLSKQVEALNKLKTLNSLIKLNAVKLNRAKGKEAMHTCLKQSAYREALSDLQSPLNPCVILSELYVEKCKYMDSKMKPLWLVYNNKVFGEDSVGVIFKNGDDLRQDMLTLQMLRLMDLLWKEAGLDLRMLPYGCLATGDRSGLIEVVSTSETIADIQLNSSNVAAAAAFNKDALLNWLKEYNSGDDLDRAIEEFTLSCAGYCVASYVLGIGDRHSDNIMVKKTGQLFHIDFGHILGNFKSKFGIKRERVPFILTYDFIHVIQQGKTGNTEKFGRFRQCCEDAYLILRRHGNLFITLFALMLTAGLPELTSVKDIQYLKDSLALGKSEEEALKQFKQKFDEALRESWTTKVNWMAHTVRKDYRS
Chain of PI3Kβ (P27986 whole entry partner, canonical isoform): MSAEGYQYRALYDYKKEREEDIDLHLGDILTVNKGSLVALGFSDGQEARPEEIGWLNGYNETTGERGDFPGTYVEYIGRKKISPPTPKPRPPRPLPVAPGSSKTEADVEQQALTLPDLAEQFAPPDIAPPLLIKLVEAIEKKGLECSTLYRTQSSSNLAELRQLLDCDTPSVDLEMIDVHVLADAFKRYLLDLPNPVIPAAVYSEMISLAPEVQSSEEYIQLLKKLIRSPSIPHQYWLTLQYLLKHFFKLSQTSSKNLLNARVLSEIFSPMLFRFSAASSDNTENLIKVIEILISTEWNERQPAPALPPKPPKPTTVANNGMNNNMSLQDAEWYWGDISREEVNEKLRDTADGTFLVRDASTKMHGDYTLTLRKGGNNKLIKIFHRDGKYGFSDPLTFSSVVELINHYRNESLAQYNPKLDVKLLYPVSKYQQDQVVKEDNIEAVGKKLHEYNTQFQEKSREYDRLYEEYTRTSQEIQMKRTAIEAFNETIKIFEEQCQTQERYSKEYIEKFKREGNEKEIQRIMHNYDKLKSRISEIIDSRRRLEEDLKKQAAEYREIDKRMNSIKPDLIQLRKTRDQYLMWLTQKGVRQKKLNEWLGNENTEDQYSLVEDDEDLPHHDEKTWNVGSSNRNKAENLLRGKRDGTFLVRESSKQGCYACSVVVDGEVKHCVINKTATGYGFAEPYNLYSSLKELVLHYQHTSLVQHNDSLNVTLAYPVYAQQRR

| Structure (SMILES) | IC50 |
| --- | --- |
| FC1(c2nc3c(-c4nnc[nH]4)cc(N4CCOCC4)cc3n2-c2ccnc3c(Cl)cccc23)CC1 [Example 54, 4-(1-(8-chloroquinolin-4-yl)-2-(1-fluorocyclopropyl)-4-(4H-1,2,4-triazol-3-yl)-1H-benzo[d]imidazol-6-yl)morpholine] | 14 nM |
| CCc1nc2ccccc2c(-n2c(C)nc3c(-c4nnc[nH]4)cc(N4CCOCC4)cc32)c1C [Example 55, 4-[3-(2-ethyl-3-methylquinolin-4-yl)-2-methyl-7-(4H-1,2,4-triazol-3-yl)benzimidazol-5-yl]morpholine] | 27 nM |
| Cc1c(C2CC2)nc2ccccc2c1-n1c(C)nc2c(-c3nnc[nH]3)cc(N3CCOCC3)cc21 [Example 56, 4-[3-(2-cyclopropyl-3-methylquinolin-4-yl)-2-methyl-7-(4H-1,2,4-triazol-3-yl)benzimidazol-5-yl]morpholine] | 72 nM |
| Cc1nc2c(-c3nnc[nH]3)cc(N3CCOCC3)cc2n1-c1cc(-c2nnc[nH]2)nc2ccccc12 [Example 57, 4-[2-methyl-7-(4H-1,2,4-triazol-3-yl)-3-[2-(4H-1,2,4-triazol-3-yl)quinolin-4-yl]benzimidazol-5-yl]morpholine] | 55 nM |
| Cc1nc2c(-c3nnc[nH]3)cc(N3CCOCC3)cc2n1-c1cc(C(F)(F)F)nc2c(Cl)cccc12 [Example 58, 4-[3-[8-chloro-2-(trifluoromethyl)quinolin-4-yl]-2-methyl-7-(4H-1,2,4-triazol-3-yl)benzimidazol-5-yl]morpholine] | 62 nM |
| Cc1nc2c(-c3nnc[nH]3)cc(N3CCOCC3)cc2n1-c1cc(-c2ccccc2)nc2ccccc12 [Example 59, 4-[2-methyl-3-(2-phenylquinolin-4-yl)-7-(4H-1,2,4-triazol-3-yl)benzimidazol-5-yl]morpholine] | 130 nM |
| Cc1cc(-n2c(C)nc3c(-c4nnc[nH]4)cc(N4CCOCC4)cc32)c2cccc(C(F)(F)F)c2n1 [Example 60, 4-[2-methyl-3-[2-methyl-8-(trifluoromethyl)quinolin-4-yl]-7-(4H-1,2,4-triazol-3-yl)benzimidazol-5-yl]morpholine] | 30 nM |
| Cc1nc2c(F)cccc2c(-n2c(C)nc3c(-c4nnc[nH]4)cc(N4CCOCC4)cc32)c1C [Example 61, 4-[3-(8-fluoro-2,3-dimethylquinolin-4-yl)-2-methyl-7-(4H-1,2,4-triazol-3-yl)benzimidazol-5-yl]morpholine] | 27 nM |
| CCc1c(C)nc2ccccc2c1-n1c(C)nc2c(-c3nnc[nH]3)cc(N3CCOCC3)cc21 [Example 62, 4-[3-(3-ethyl-2-methylquinolin-4-yl)-2-methyl-7-(4H-1,2,4-triazol-3-yl)benzimidazol-5-yl]morpholine] | 23 nM |
| Cc1cc(-n2c(C)nc3c(-c4nnc[nH]4)cc(N4CCOCC4)cc32)c2ccc(F)cc2n1 [Example 63, 4-[3-(7-fluoro-2-methylquinolin-4-yl)-2-methyl-7-(4H-1,2,4-triazol-3-yl)benzimidazol-5-yl]morpholine] | 28 nM |
| Cc1cc(-n2c(C)nc3c(-c4nnc[nH]4)cc(N4CCOCC4)cc32)c2cccc(Cl)c2n1 [Example 64, 4-[3-(8-chloro-2-methylquinolin-4-yl)-2-methyl-7-(4H-1,2,4-triazol-3-yl)benzimidazol-5-yl]morpholine] | 21 nM |
| Cc1cnc2ccccc2c1-n1c(C)nc2c(-c3nnc[nH]3)cc(N3CCOCC3)cc21 [Example 65, 4-[2-methyl-3-(3-methylquinolin-4-yl)-7-(4H-1,2,4-triazol-3-yl)benzimidazol-5-yl]morpholine] | 24 nM |
| Cc1nc2c(-c3nnc[nH]3)cc(N3CCOCC3)cc2n1-c1c(C2CC2)cnc2ccccc12 [Example 66, 4-[3-(3-cyclopropylquinolin-4-yl)-2-methyl-7-(4H-1,2,4-triazol-3-yl)benzimidazol-5-yl]morpholine] | 16 nM |
| Cc1nc2c(-c3nnc[nH]3)cc(N3CCOCC3)cc2n1-c1cc(C#N)nc2ccccc12 [Example 67, 4-[2-methyl-6-morpholin-4-yl-4-(4H-1,2,4-triazol-3-yl)benzimidazol-1-yl]quinoline-2-carbonitrile] | 99 nM |
